# Legend:
# Hsp90α = Hsp90α (Homo sapiens, UniProt P07900); experiment: biochemical; conditions: FP competition, 6 nM Cy3B-GM, 10 nM protein, 4° C. for 24 h
# Grp94 = Grp94 (Canis lupus familiaris, UniProt P41148); conditions: read-out: Grp94; FP competition, 6 nM Cy3B-GM, 10 nM protein, 4° C. for 24 h
# Sequence of Grp94 (P41148 with tags, fused parts or gaps DELINS287-327GGGG): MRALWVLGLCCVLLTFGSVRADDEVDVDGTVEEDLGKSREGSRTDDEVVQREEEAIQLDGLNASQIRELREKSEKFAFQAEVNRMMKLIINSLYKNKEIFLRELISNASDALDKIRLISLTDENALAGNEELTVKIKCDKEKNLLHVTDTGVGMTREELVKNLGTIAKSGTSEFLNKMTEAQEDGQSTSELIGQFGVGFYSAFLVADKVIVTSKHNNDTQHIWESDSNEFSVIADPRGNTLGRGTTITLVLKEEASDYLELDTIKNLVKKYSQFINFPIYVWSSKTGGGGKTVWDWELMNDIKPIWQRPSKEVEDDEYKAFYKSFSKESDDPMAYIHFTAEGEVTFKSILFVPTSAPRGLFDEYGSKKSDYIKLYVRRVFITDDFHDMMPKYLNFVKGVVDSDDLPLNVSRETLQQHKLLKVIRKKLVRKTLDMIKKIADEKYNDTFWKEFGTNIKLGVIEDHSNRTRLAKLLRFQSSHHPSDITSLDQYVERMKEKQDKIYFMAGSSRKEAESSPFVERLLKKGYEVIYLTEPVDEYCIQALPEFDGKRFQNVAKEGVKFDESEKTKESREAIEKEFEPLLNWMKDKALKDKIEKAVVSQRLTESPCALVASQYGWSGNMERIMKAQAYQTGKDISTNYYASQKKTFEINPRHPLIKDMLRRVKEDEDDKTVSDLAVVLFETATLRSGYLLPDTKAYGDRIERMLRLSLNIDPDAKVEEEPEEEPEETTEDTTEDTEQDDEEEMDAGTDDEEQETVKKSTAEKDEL
Structure (SMILES),IC50 (Hsp90α),IC50 (Grp94)
"C#CCN(CCO)CCCn1c(Sc2cc(Cl)cc(Cl)c2)nc2c(N)ncnc21 [HJP-V-132, 2-((3-(6-amino-8-((3,5-dichlorophenyl)thio)-9H-purin-9-yl)propyl)(prop-2-yn-1-yl)amino)ethanol]",26.6 µM,0.81 µM
"CC(C)NCCCn1c(Sc2cc(Cl)cc(/C=C/C(C)(C)C)c2)nc2c(N)ncnc21 [HJP-VI-72, (E)-8-((3-chloro-5-(3,3-dimethylbut-1-en-1-yl)phenyl)thio)-9-(3-(isopropylamino)propyl)-9H-purin-6-amine]",14.2 µM,0.102 µM
"CC(C)NCCCn1c(Sc2ccc(Cl)cc2-c2ccc[nH]2)nc2c(N)ncnc21 [HJP-VI-42, 8-((4-chloro-2-(1H-pyrrol-2-yl)phenyl)thio)-9-(3-(isopropylamino)propyl)-9H-purin-6-amine]",66.9 µM,1.1 µM
"C#CCCCn1c(C(=O)c2cc(Cl)cc(Cl)c2)nc2c(N)ncnc21 [HJP-V-39T, (6-Amino-9-(pent-4-yn-1-yl)-9H-purin-8-yl)(3,5-dichlorophenyl)methanone]",> 10 µM,–
C#CCCCn1cnc(N)c2nc(Sc3ccc(Cl)c(Cl)c3)nc1-2 [PDP-I-25-N3],> 50 µM,11.1 µM
"CC(C)NCCCn1c(Sc2cc(Cl)c(Cl)cc2Cl)nc2c(N)ncnc21 [HJP-V-103-N9, 9-(3-(Isopropylamino)propyl)-8-((2,4,5-trichlorophenyl)thio)-9H-purin-6-amine]",5.8 µM,0.35 µM
C#CCCCn1c(Sc2ccc(Cl)c3ccccc23)nc2c(N)ncnc21 [PDP-I-77-N9],> 50 µM,> 2 µM
CC(C)NCCCn1c(Sc2cc(Cl)cc(Cl)c2I)nc2c(N)ncnc21 [HJP-V-145],–,0.68 µM
C#CCCCn1cnc(N)c2nc(Sc3cc(Cl)cc(Cl)c3)nc1-2 [PU-H41],> 100 µM,–
"CC(C)C#Cc1cc(Cl)cc(Sc2nc3c(N)ncnc3n2CCCNC(C)C)c1 [HJP-VI-51, 8-((3-chloro-5-(3-methylbut-1-yn-1-yl)phenyl)thio)-9-(3-(isopropylamino)propyl)-9H-purin-6-amine]",> 50 µM,1.2 µM
Nc1ncn(CCCC(F)(F)F)c2nc(Sc3cc(Cl)cc(Cl)c3)nc1-2,> 50 µM,> 10 µM
"Nc1ncnc2c1nc(Sc1ccc(Cl)cc1Cl)n2CCc1ccncc1 [HJP-V-118, 8-((2,4-Dichlorophenyl)thio)-9-(2-(pyridin-4-yl)ethyl)-9H-purin-6-amine]",> 50 µM,1.03 µM
"Nc1ncnc2c1nc(Sc1ccc(Cl)cc1Cl)n2CCc1ccccn1 [HJP-V-93, 8-((2,4-Dichlorophenyl)thio)-9-(2-(pyridin-2-yl)ethyl)-9H-purin-6-amine]",> 50 µM,1.9 µM
"CN1CCN(CCn2c(Sc3cc(Cl)cc(Cl)c3)nc3c(N)ncnc32)CC1 [SO-III-39A, 8-((3,5-dichlorophenyl)thio)-9-(2-(4-methylpiperazin-1-yl)ethyl)-9H-purin-6-amine]",52.2 µM,0.373 µM
C#CCCCn1c(Sc2cc(Br)cc3ccn(Cc4ccc(OC)cc4)c23)nc2c(N)ncnc21 [PDP-I-55-N9],> 50 µM,> 5 µM
"C#CCN(CCO)CCn1c(Sc2ccc(Cl)cc2Cl)nc2c(N)ncnc21 [HJP-V-110, 2-((2-(6-Amino-8-((2,4-dichlorophenyl)thio)-9H-purin-9-yl)ethyl)(prop-2-yn-1-yl)amino)ethanol]",> 50 µM,0.6 µM
"CC(C)=Cc1cc(Cl)cc(Sc2nc3c(N)ncnc3n2CCCNC(C)C)c1 [HJP-VI-62, 8-((3-chloro-5-(2-methylprop-1-en-1-yl)phenyl)thio)-9-(3-(isopropylamino)propyl)-9H-purin-6-amine]",> 50 µM,0.28 µM
"C#CCCCn1c(Cc2cccc(Cl)c2Cl)nc2c(N)ncnc21 [HJP-V-55, 8-(2,3-Dichlorobenzyl)-9-(pent-4-yn-1-yl)-9H-purin-6-amine]",> 10 µM,–
"CC#Cc1cc(Cl)cc(Sc2nc3c(N)ncnc3n2CCCNC(C)C)c1 [HJP-VI-50, 8-((3-chloro-5-(prop-1-yn-1-yl)phenyl)thio)-9-(3-(isopropylamino)propyl)-9H-purin-6-amine]",> 50 µM,–
"CC(C)NCCCn1c(Sc2cc(Cl)cc(Cl)c2)nc2c(N)nc(F)nc21 [HJP-VI-69, 8-((3,5-dichlorophenyl)thio)-2-fluoro-9-(3-(isopropylamino)propyl)-9H-purin-6-amine]",–,0.135 µM

# The next lines start with the values.
IC50 (Hsp90α),IC50 (Grp94),Structure (SMILES)
25.9 µM,0.75 µM,"Cc1ccc(-c2cc(Cl)cc(Sc3nc4c(N)ncnc4n3CCCNC(C)C)c2)o1 [HJP-VI-38, 8-((3-chloro-5-(5-methylfuran-2-yl)phenyl)thio)-9-(3-(isopropylamino)propyl)-9H-purin-6-amine]"
> 50 µM,> 10 µM,C#CCCCn1c(Sc2cn(Cc3ccc(OC)cc3)c3ncc(Br)cc23)nc2c(N)ncnc21 [PDP-I-58-N9]
9.2 µM,> 5 µM,"CC(C)NCCCn1c(Sc2ccc(Cl)cc2Cl)nc2c(N)nccc21 [HJP-VI-101, 2-((2,4-dichlorophenyl)thio)-1-(3-(isopropylamino)propyl)-1H-imidazo[4,5-c]pyridin-4-amine]"
16.7 µM,0.32 µM,"CC(C)NCCCn1c(Sc2cc(Cl)cc(-c3ccco3)c2)nc2c(N)ncnc21 [HJP-VI-30, 8-((3-chloro-5-(furan-2-yl)phenyl)thio)-9-(3-(isopropylamino)propyl)-9H-purin-6-amine]"
> 50 µM,> 5 µM,C#CCCCn1cnc(N)c2nc(Sc3ccc(Cl)c4ccccc34)nc1-2 [PDP-I-77-N3]
7.6 µM,0.21 µM,"CC(CO)NCCn1c(Sc2ccc(Cl)cc2Cl)nc2c(N)ncnc21 (centres unmarked) [HJP-V-86, 2-((2-(6-Amino-8-((2,4-dichlorophenyl)thio)-9H-purin-9-yl)ethyl)amino)propan-1-ol]"
31.3 µM,0.23 µM,"CC(O)CNCCn1c(Sc2ccc(Cl)cc2Cl)nc2c(N)ncnc21 (centres unmarked) [HJP-V-82, 1-((2-(6-Amino-8-((2,4-dichlorophenyl)thio)-9H-purin-9-yl)ethyl)amino)propan-2-ol]"
> 10 µM,0.203 µM,"Nc1ncnc2c1nc(Sc1cc(Cl)cc(Cl)c1)n2CCCn1ccnc1 [SO-III-103A, 9-(3-(1H-imidazol-1-yl)propyl)-8-((3,5-dichlorophenyl)thio)-9H-purin-6-amine]"
> 50 µM,5.8 µM,"CC(C)NCCCn1c(Sc2cc(Cl)cc(C#CCO)c2)nc2c(N)ncnc21 [HJP-VI-58, 3-(3-((6-amino-9-(3-(isopropylamino)propyl)-9H-purin-8-yl)thio)-5-chlorophenyl)prop-2-yn-1-ol]"
> 50 µM,–,"CC(C)NCCCn1c(Sc2ccc(Cl)cc2N)nc2c(N)ncnc21 [HJP-VI-34, 8-((2-amino-4-chlorophenyl)thio)-9-(3-(isopropylamino)propyl)-9H-purin-6-amine]"
4.51 µM,2.41 µM,"C#CCCCn1c(Sc2ccc(C#N)c(C(F)(F)F)c2)nc2c(N)ncnc21 [HJP-III-29, 4-((6-Amino-9-(pent-4-yn-1-yl)-9H-purin-8-yl)thio)-2-(trifluoromethyl)benzonitrile]"
> 50 µM,2.48 µM,"CCCC(C)n1c(Sc2ccc(Cl)cc2Cl)nc2c(N)ncnc21 (centres unmarked) [HJP-V-114, 8-((2,4-Dichlorophenyl)thio)-9-(pentan-2-yl)-9H-purin-6-amine]"
> 50 µM,> 5 µM,C#CCCCn1cnc(N)c2nc(Sc3ccc(-n4cccc4)cc3)nc1-2 [PDP-I-51-N3]
> 50 µM,–,"CC(C)NCCCn1c(Sc2ccc(F)cc2Cl)nc2c(N)ncnc21 [HJP-VI-25, 8-((2-chloro-4-fluorophenyl)thio)-9-(3-(isopropylamino)propyl)-9H-purin-6-amine]"
> 10 µM,0.38 µM,"Nc1ncnc2c1nc(Sc1cc(Cl)cc(Cl)c1)n2CCCN1CC(O)C1 [HJP-V-134, 1-(3-(6-amino-8-((3,5-dichlorophenyl)thio)-9H-purin-9-yl)propyl)azetidin-3-ol]"
> 5 µM,1.9 µM,"C#CCCCn1c(Sc2cc(Cl)nc(Cl)c2)nc2c(N)ncnc21 [HJP-VI-66, 8-((2,6-dichloropyridin-4-yl)thio)-9-(pent-4-yn-1-yl)-9H-purin-6-amine]"
> 10 µM,0.5 µM,"C#CCCCn1c(Oc2ccc(Cl)cc2Cl)nc2c(N)ncnc21 [HJP-V-45, 8-(2,4-Dichlorophenoxy)-9-(pent-4-yn-1-yl)-9H-purin-6-amine]"
51.7 µM,0.37 µM,"CC(O)CNCCCn1c(Sc2cc(Cl)cc(Cl)c2)nc2c(N)ncnc21 (centres unmarked) [HJP-V-130, 1-((3-(6-amino-8-((3,5-dichlorophenyl)thio)-9H-purin-9-yl)propyl)amino)propan-2-ol]"
> 50 µM,7.9 µM,"Nc1ncnc2c1nc(Sc1cc(Cl)cc(Cl)c1)n2CCc1cccnc1 [HJP-V-140, 8-((3,5-dichlorophenyl)thio)-9-(2-(pyridin-3-yl)ethyl)-9H-purin-6-amine]"
24.1 µM,5.4 µM,"C#CCCCn1c([S+]([O-])c2ccc(Cl)cc2Cl)nc2c(N)ncnc21 (centres unmarked) [HJP-V-62M, 8-((2,4-Dichlorophenyl)sulfinyl)-9-(pent-4-yn-1-yl)-9H-purin-6-amine]"
> 10 µM,0.5 µM,"C#CCCCn1c(Cc2cc(Cl)cc(Cl)c2)nc2c(N)ncnc21 [HJP-V-39, 8-(3,5-Dichlorobenzyl)-9-(pent-4-yn-1-yl)-9H-purin-6-amine]"
60.3 µM,–,"C#CCCCn1c(Sc2cc(C#N)cc(C#N)c2)nc2c(N)ncnc21 [HJP-III-26, 5-((6-Amino-9-(pent-4-yn-1-yl)-9H-purin-8-yl)thio)isophthalonitrile]"
–,0.124 µM,"C/C=C(\C)c1cc(Cl)cc(Sc2nc3c(N)ncnc3n2CCCNC(C)C)c1 [HJP-VI-79, (E)-8-((3-(but-2-en-2-yl)-5-chlorophenyl)thio)-9-(3-(isopropylamino)propyl)-9H-purin-6-amine]"
–,0.92 µM,"C#CCC(CC)n1c(Sc2ccc(Cl)cc2Cl)nc2c(N)ncnc21 (centres unmarked) [HJP-V-117, 8-((2,4-dichlorophenyl)thio)-9-(hex-5-yn-3-yl)-9H-purin-6-amine]"

# Reference: patent publication US12600725B2 (Memorial Sloan-Kettering Cancer Center, priority 2013, dated 2026)
